Measurements reported in the supplement of paper PMC11208160.

Assay: recombinant barcode read abundance after kanamycin selection (control-corrected) (log10(CPM+1)); higher = more efficient recombination; sequences stand for … in AGTGCAGAGAAAATCGGCCAGTTTTCTCTGCCTGCAGTCCGCATGCCGT…AGATTTATGCAGCGGACTGCCTTTCTCCCAAAGTGATAAACCGGACAGTATCATGGACCGGTTTTCCCGGTAATCCGTATTTGCAAGGTTGGTTTCACT; site = the 11-nt target
Protocol: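 Pooled E. coli target-specificity screen for the IS621 bridge recombinase. Each library plasmid pairs an 11-nt target (CT core) with a bridge RNA whose target-binding loop (9-nt LTG + 4-nt RTG) is reprogrammed; the rest of the 177-nt WT IS621 bridge RNA scaffold is fixed. The plasmid is co-electroporated with a WT donor plasmid; recombinase is induced with 0.1 mM IPTG and recombinants are selected on kanamycin. Recombinant barcodes are sequenced, converted to CPM, averaged over two biological replicates and corrected by the unselected control CPM. Molecule = full bridge RNA written as DNA: LTG = specificity nt 1-9, RTG = reverse complement of specificity nt 8-11, in the WT scaffold.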
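Further: IS621 recombinase and bridge RNA in Escherichia coli cells.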

Sequence	recombinant barcode read abundance (log10)
ACTTCAACTTGGGTTCTAACCTGTTGCCT (site ACATCAACTAG)	0.0253
ACTTCAACTTGGGTTCTAACCTGTTGCCT (site ACCTCAACTAG)	0.026
ACTTCAACTTGGGTTCTAACCTGTTGCCT (site ACGTCAACTAG)	0.161
ACTTCAACTTGGGTTCTAACCTGTTGCCT (site ACTTCAACTAG)	0.101
ACTTCACCTTGGGTTCTAACCTGTTGCCT (site ACTTCACCTAG)	1.02
ACTTCACCTTGGGTTCTAACCTGTTGCCT (site ACTTCTGCTAG)	0.0689
ACTTCTACTTGGGTTCTAACCTGTTGCCG (site ACTTCTACTCG)	0.195
ACTTCTACTTGGGTTCTAACCTGTTGCCG (site ACTTCTTCTAG)	0.204
ACTTGACCTTGGGTTCTAACCTGTTGCGG (site ACTTGACCTCC)	2.31
ACTTGACCTTGGGTTCTAACCTGTTGCGG (site AGTTAACCTCC)	0
ACTTGCCCTTGGGTTCTAACCTGTTGCCT (site AATTGCCCTAG)	0.0465
ACTTGCCCTTGGGTTCTAACCTGTTGCCT (site ACTTGCCCTAG)	0.925
ACTTGCCCTTGGGTTCTAACCTGTTGCCT (site AGTTGCCCTAG)	0.00674
ACTTGCCCTTGGGTTCTAACCTGTTGCCT (site ATTTGCCCTAG)	0.57
ACTTTGTCTTGGGTTCTAACCTGTTGCCT (site ACATTGTCTAG)	0.0289
ACTTTGTCTTGGGTTCTAACCTGTTGCCT (site ACCTTGTCTAG)	0.085
ACTTTGTCTTGGGTTCTAACCTGTTGCCT (site ACGTTGTCTAG)	0.0449
ACTTTGTCTTGGGTTCTAACCTGTTGCCT (site ACTTTGTCTAG)	0.596
AGAAACACTTGGGTTCTAACCTGTTGCCT (site AGAAACACTAG)	1.34
AGAAACACTTGGGTTCTAACCTGTTGCCT (site AGGAACACTAG)	0.0546
AGAAATTCTTGGGTTCTAACCTGTTGCCT (site AGAAATTCTAG)	0.52

Sequence	recombinant barcode read abundance (log10)
AGAAATTCTTGGGTTCTAACCTGTTGCCT (site AGCAATTCTAG)	0.0252
AGAAATTCTTGGGTTCTAACCTGTTGCCT (site AGGAATTCTAG)	0.111
AGAAATTCTTGGGTTCTAACCTGTTGCCT (site AGTAATTCTAG)	0.0316
AGAAGTCCTTGGGTTCTAACCTGTTGCTG (site AGAAGTCCTCA)	1.11
AGAAGTCCTTGGGTTCTAACCTGTTGCTG (site AGAAGTCCTCC)	0.0845
AGAAGTCCTTGGGTTCTAACCTGTTGCTG (site AGAAGTCCTCG)	0.0922
AGAAGTCCTTGGGTTCTAACCTGTTGCTG (site AGAAGTCCTCT)	0.773
AGAATCCCTTGGGTTCTAACCTGTTGCTA (site AGAATCCCTTA)	1.74
AGAATCCCTTGGGTTCTAACCTGTTGCTA (site GCAATCCCTTA)	0.106
AGACGTCCTTGGGTTCTAACCTGTTGCGT (site AGACGTCCTAC)	2.51
AGACGTCCTTGGGTTCTAACCTGTTGCGT (site ATACGTCCTAT)	0.233
AGACTAACTTGGGTTCTAACCTGTTGCTT (site AGACTAACTAA)	0.715
AGACTAACTTGGGTTCTAACCTGTTGCTT (site GGACTAACTAG)	0.0387
AGACTCTCTTGGGTTCTAACCTGTTGCCT (site AGACTCTCTAG)	2.01
AGACTCTCTTGGGTTCTAACCTGTTGCCT (site ATACTCTCTAG)	0.377
AGACTTCCTTGGGTTCTAACCTGTTGCTT (site AGACATCCTAA)	0.158
AGACTTCCTTGGGTTCTAACCTGTTGCTT (site AGACCTCCTAA)	0.121
AGACTTCCTTGGGTTCTAACCTGTTGCTT (site AGACGTCCTAA)	0.0179
AGACTTCCTTGGGTTCTAACCTGTTGCTT (site AGACTTCCTAA)	0.811
AGAGAGTCTTGGGTTCTAACCTGTTGCCT (site AGAAAGTCTAC)	0.0903
AGAGAGTCTTGGGTTCTAACCTGTTGCCT (site AGAGAGTCTAG)	2.53

Sequence	recombinant barcode read abundance (log10)
AGAGGGTCTTGGGTTCTAACCTGTTGCCT (site AAAGGGTCTAG)	0.21
AGAGGGTCTTGGGTTCTAACCTGTTGCCT (site ACAGGGTCTAG)	0.731
AGAGGGTCTTGGGTTCTAACCTGTTGCCT (site AGAGGGTCTAG)	2.79
AGAGGGTCTTGGGTTCTAACCTGTTGCCT (site ATAGGGTCTAG)	0.765
AGAGGTCCTTGGGTTCTAACCTGTTGCCT (site AGAGGTCCTAG)	2.04
AGAGGTCCTTGGGTTCTAACCTGTTGCCT (site TGAGGGCCTAG)	0.169
AGAGTGACTTGGGTTCTAACCTGTTGCCT (site AGAGAGACTAG)	1
AGAGTGACTTGGGTTCTAACCTGTTGCCT (site AGAGCGACTAG)	0.0794
AGAGTGACTTGGGTTCTAACCTGTTGCCT (site AGAGGGACTAG)	0.0448
AGAGTGACTTGGGTTCTAACCTGTTGCCT (site AGAGTGACTAG)	1.69
AGATTCACTTGGGTTCTAACCTGTTGCCT (site AGATTCACTAG)	0.994
AGATTCACTTGGGTTCTAACCTGTTGCCT (site AGATTGACTTG)	0.0824
AGATTCCCTTGGGTTCTAACCTGTTGCCG (site AGATTCCCTCG)	1.67
AGATTCCCTTGGGTTCTAACCTGTTGCCG (site AGATTCGCTCG)	0.0429
AGATTTCCTTGGGTTCTAACCTGTTGCAT (site AGATTTCCTAT)	0.173
AGATTTCCTTGGGTTCTAACCTGTTGCAT (site CATCCGACTGA)	0.0339
AGCAACACTTGGGTTCTAACCTGTTGCAG (site AGCAACACTCT)	0.467
AGCAACACTTGGGTTCTAACCTGTTGCAG (site TCTCGTCCTTA)	0.0984
AGCAATTCTTGGGTTCTAACCTGTTGCCT (site AGAAATTCTAG)	0.144
AGCAATTCTTGGGTTCTAACCTGTTGCCT (site AGCAATTCTAG)	0.165
AGCAATTCTTGGGTTCTAACCTGTTGCCT (site AGGAATTCTAG)	0.132

Sequence	recombinant barcode read abundance (log10)
AGCAATTCTTGGGTTCTAACCTGTTGCCT (site AGTAATTCTAG)	0.277
AGCAGCTCTTGGGTTCTAACCTGTTGCCT (site AGCAGCTCTAG)	1.7
AGCAGCTCTTGGGTTCTAACCTGTTGCCT (site AGGAGCGCTAG)	0.0136
AGCAGGACTTGGGTTCTAACCTGTTGCCG (site AGCACGACTCA)	0.0667
AGCAGGACTTGGGTTCTAACCTGTTGCCG (site AGCAGGACTCG)	1.17
AGCAGGGCTTGGGTTCTAACCTGTTGCAG (site AGCAGGGCTCT)	2.14
AGCAGGGCTTGGGTTCTAACCTGTTGCAG (site AGTAGGACTCT)	0.184
AGCAGGTCTTGGGTTCTAACCTGTTGCCT (site AACAGGTCTAG)	0.109
AGCAGGTCTTGGGTTCTAACCTGTTGCCT (site ACCAGGTCTAG)	0.234
AGCAGGTCTTGGGTTCTAACCTGTTGCCT (site AGCAGGTCTAG)	1.09
AGCAGGTCTTGGGTTCTAACCTGTTGCCT (site ATCAGGTCTAG)	0.0118
AGCAGTCCTTGGGTTCTAACCTGTTGCGT (site AGCAGTCCTAC)	1.47
AGCAGTCCTTGGGTTCTAACCTGTTGCGT (site AGGAGTCCTAC)	0.188
AGCAGTCCTTGGGTTCTAACCTGTTGCTG (site AGCAGTCCTCA)	0.802
AGCAGTCCTTGGGTTCTAACCTGTTGCTG (site TCCAGTCCTCA)	0.0256
AGCCACACTTGGGTTCTAACCTGTTGCCT (site AGCCACACTAG)	0.933
AGCCACACTTGGGTTCTAACCTGTTGCCT (site AGCCACCCTAG)	0
AGCCACACTTGGGTTCTAACCTGTTGCCT (site AGCCACGCTAG)	0.374
AGCCACACTTGGGTTCTAACCTGTTGCCT (site AGCCACTCTAG)	0.456
